Where two headings read alike, the source gives them in different places. Marks after values point to notes of the source that are not given here.
Legend:
[1] = cited from earlier work
[2] = target: CYP3A5 (Homo sapiens, UniProt P20815); conditions: cited from earlier work
[3] = test system: CYP3A; conditions: cited from earlier work
[4] = cited from earlier work; remark: listed apart in the source
[5] = cited from earlier work; remark: listed apart in the source
[6] = test system: human liver microsomes (HLM150); assay: Eplerenone metabolism via pooled human liver microsomes (HLM150); type: in vitro ADME; conditions: for Vmax: HLM 150, Corning/BD
[7] = as above; type: in vitro ADME; conditions: human, pooled human liver microsomes (HLM150, 150 donors), HLM 150, Corning/BD
[8] = test system: human liver microsomes (HLM, Xenotech); conditions: cited from earlier work
[9] = test system: plasma protein; conditions: cited from earlier work; for Protein binding %: Table of Tyrosine Kinase Inhibitor Substrates
[10] = test system: CYP3A4/5

CYP3A5, sequence (P20815 whole entry): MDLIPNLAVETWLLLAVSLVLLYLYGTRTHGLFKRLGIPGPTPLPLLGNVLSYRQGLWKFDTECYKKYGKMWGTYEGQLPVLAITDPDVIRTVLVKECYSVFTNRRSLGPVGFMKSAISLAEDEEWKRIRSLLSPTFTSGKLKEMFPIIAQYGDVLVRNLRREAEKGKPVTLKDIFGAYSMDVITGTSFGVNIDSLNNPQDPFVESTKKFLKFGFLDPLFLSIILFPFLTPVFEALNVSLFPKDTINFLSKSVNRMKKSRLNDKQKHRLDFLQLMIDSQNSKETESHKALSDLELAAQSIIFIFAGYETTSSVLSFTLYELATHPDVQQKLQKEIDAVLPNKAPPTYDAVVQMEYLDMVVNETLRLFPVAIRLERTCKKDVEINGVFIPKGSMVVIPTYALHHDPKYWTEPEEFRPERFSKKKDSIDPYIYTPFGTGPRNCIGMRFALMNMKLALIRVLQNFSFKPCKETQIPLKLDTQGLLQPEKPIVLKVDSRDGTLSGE

In the case of COC(=O)[C@H]1[C@H]2[C@@H]3CC[C@@]4(CCC(=O)O4)[C@@]3(C)C[C@H]3O[C@@]23[C@@]2(C)CCC(=O)C=C2[C@@H]1O [6OH-EP, 6β-hydroxyeplerenone], the “Compound Type” value ([1]; SimCYP model parameter) is given as “Neutral” and the Blood/plasma ratio [1] is given as 1.
For COC(=O)[C@@H]1CC2=CC(=O)CC[C@]2(C)[C@@]23O[C@@H]2C[C@@]2(C)[C@@H](CC[C@@]24CC(O)C(=O)O4)[C@H]13 (stereo partly drawn) [21OH-EP, 21-hydroxyeplerenone], the “Compound Type” value ([1]; SimCYP model parameter) is given as “Neutral” and the Blood/plasma ratio [1] is given as 1.
For Cc1nnc2n1-c1ccc(Cl)cc1C(c1ccccc1)=NC2 [Alprazolam], the “CYP3A5 (% Metabolism)” value [2] is given as <10% and the “All CYP3A (% Metabolism)” value [3] is given as 62%.
For CN(C)CCC=C1c2ccccc2CCc2ccccc21 [Amitriptyline], the “HALF LIFE” value ([4]; Table CYP1A2) is given as ~13 to 36 h, the “HALF LIFE” value ([4]; Table CYP2D6) is given as ~13 to 36 h and the “ORAL BIOAVAILABILITY” value ([5]; Table CYP2C9) is given as 30-60% ^. For the same compound, the “ORAL BIOAVAILABILITY” value ([5]; Table CYP2D6) was ~43-46% ^.
In the case of COc1ccccc1OCCNCC(O)COc1cccc2[nH]c3ccccc3c12 (stereo not drawn) [Carvedilol], the “HALF LIFE” value ([4]; Table CYP2D6) is listed as 6 to 10 h and the “ORAL BIOAVAILABILITY” value ([5]; Table CYP2D6) is listed as 25-35% ^.
In the case of COc1ccc(C(=O)Nc2ccccc2CCC2CCCCN2C)cc1 (stereo not drawn) [Encainide], the “HALF LIFE” value ([4]; Table CYP2D6) is given as 11.3 h and the “ORAL BIOAVAILABILITY” value ([5]; Table CYP2D6) is given as 25-90% ^.
In the case of COC(=O)[C@@H]1CC2=CC(=O)CC[C@]2(C)[C@@]23O[C@@H]2C[C@@]2(C)[C@@H](CC[C@@]24CCC(=O)O4)[C@H]13 [Eplerenone], the “Permeability model Caco-2” value ([1]; Caco-2) is given as “Caco-2 (24* 10^−6 cm/s)”, the “Compound Type” value ([1]; SimCYP model parameter) is given as “Neutral” and the “ka” value ([1]; SimCYP model parameter) is given as 1.647 h⁻¹. The Vmax ([6]; 6β-OH metabolite formation) was 1493 pmol/min/mg, the Vmax ([6]; 21-OH metabolite formation) was 216 pmol/min/mg and the “ISEF for recombinant CYP3A4/5” value ([6]; HLM 150 vs rhCYP3A4 and rhCYP3A5 clearances, Eq. 1) was 1.0. The Km at 10 min ([7]; 6β-OH metabolite formation) was 473 µM, the Km at 10 min ([7]; 21-OH metabolite formation) was 197 µM and the Km ([8]; 6β-OH metabolite formation) was 217 µM. The Vmax ([8]; 6β-OH metabolite formation) was 973 pmol/min/mg, the Km ([8]; 21-OH metabolite formation) was 211 µM and the Vmax ([8]; 21-OH metabolite formation) was 143 pmol/min/mg.
In the case of C#Cc1cccc(Nc2ncnc3cc(OCCOC)c(OCCOC)cc23)c1 [Erlotinib], the Protein binding % [9] is listed as 95%.
For CNCCC(Oc1ccc(C(F)(F)F)cc1)c1ccccc1 (stereo not drawn) [Fluoxetine], the “HALF LIFE” value ([4]; Table CYP2C9) is given as 96 to 140 h, the “HALF LIFE” value ([4]; Table CYP2D6) is given as 96 to 140 h and the “ORAL BIOAVAILABILITY” value ([5]; Table CYP2C9) is given as 60-80% ^. For the same compound, the “ORAL BIOAVAILABILITY” value ([5]; Table CYP2D6) was 60-80% ^.
In the case of COc1cc2ncnc(Nc3ccc(F)c(Cl)c3)c2cc1OCCCN1CCOCC1 [Gefitinib], the T½ ([4]; Table of Tyrosine Kinase Inhibitor Substrates) is listed as 6 to 49 h, the F % ([5]; Table of Tyrosine Kinase Inhibitor Substrates, CYP3A4) is listed as 59% and the Protein binding % [9] is listed as 90%.
In the case of CCCCC1=NC2(CCCC2)C(=O)N1Cc1ccc(-c2ccccc2-c2nnn[nH]2)cc1 [Irbesartan], the “HALF LIFE” value ([4]; Table CYP2C9) is given as 11 to 15 h and the “ORAL BIOAVAILABILITY” value ([5]; Table CYP2C9) is given as 60-80% ^.
For COC(=O)C1=C(C)NC(C)=C(C(=O)OC(C)C)C1c1cccc2nonc12 (stereo not drawn) [Isradipine], the “ORAL BIOAVAILABILITY” value ([5]; Table CYP3A4, CR) is given as “CR: 15-24% ^” and the “ORAL BIOAVAILABILITY” value ([5]; Table CYP3A4, IR) is given as “IR: 90-95% ^”.
For CNC1(c2ccccc2Cl)CCCCC1=O (stereo not drawn) [Ketamine], the “HALF LIFE” value ([4]; in vivo) is given as 2 to 3 h and the “BIOAV[…]” value ([5]; in vivo, im) is given as “IM: 90-93%, PO: 16%”.
For COc1ccc2c(c1)N(C[C@H](C)CN(C)C)c1ccccc1S2 [Levomepromazine], the “ORAL BIOAVAILABILITY” value ([5]; Table CYP2D6) is given as 50-60% ^.
For CN1C(C(=O)Nc2ccccn2)=C(O)c2sc(Cl)cc2S1(=O)=O [Lomoxicam], the “HALF LIFE” value ([4]; in vivo) is given as 4 h and the “BIOAVAILABILITY IM” value ([5]; in vivo, im) is given as “IM: 87%”.
For Cc1cccc(C)c1OCC(C)N (stereo not drawn) [Mexiletine], the “HALF LIFE” value ([4]; Table CYP1A2) is listed as 10 to 12 h, the “HALF LIFE” value ([4]; Table CYP2D6) is listed as 6 to 17 h and the “ORAL BIOAVAILABILITY” value ([5]; Table CYP2D6) is listed as 80-90% ^.
For CN1CCN2c3ccccc3Cc3ccccc3C2C1 (stereo not drawn) [Mianserin], the “ORAL BIOAVAILABILITY” value ([5]; Table CYP2D6) is listed as 20-30% ^.
In the case of Cc1ncc2n1-c1ccc(Cl)cc1C(c1ccccc1F)=NC2 [Midazolam], the “AUC fold higher than average” value [10] is given as 2.3 fold, the “AUC fold lower than the mean” value [10] is given as 4.1 fold and the “CYP3A5 (% Metabolism)” value [2] is given as 43%. For the same compound, the “All CYP3A (% Metabolism)” value [3] was 92%.
For CC(C)(O)c1ccccc1CC[C@@H](SCC1(CC(=O)O)CC1)c1cccc(/C=C/c2ccc3ccc(Cl)cc3n2)c1 [Montelukast], the “HALF LIFE” value ([4]; Table CYP2C9) is listed as 2.7 to 5.5 h, the “ORAL BIOAVAILABILITY” value ([5]; Table CYP2C9) is listed as 64-73% ^ and the “PLASMA PROTEIN BINDING” value ([9]; Table CYP2C9) is listed as >99%.
For OC(CNCC(O)C1CCc2cc(F)ccc2O1)C1CCc2cc(F)ccc2O1 (stereo not drawn) [Nebivolol], the “HALF LIFE” value ([4]; Table CYP2D6) is listed as 12 to 19 h and the “ORAL BIOAVAILABILITY” value ([5]; Table CYP2D6) is listed as 12-96% ^.
In the case of Cc1ccnc2c1NC(=O)c1cccnc1N2C1CC1 [Nevirapine], the “ORAL BIOAVAILABILITY” value ([5]; Table CYP3A4) is listed as 80-94% ^.
